Square brackets hold non-standard residues; d marks the D form. Peptide text beside a SMILES is read from it. dPhe(4-Cl) = N[C@H](Cc1ccc(Cl)cc1)C(=O)O; d2Nal = N[C@H](Cc1ccc2ccccc2c1)C(=O)O; d(hCit) = NC(=O)NCCCC[C@@H](N)C(=O)O; Lys(iPr) = CC(C)NCCCC[C@H](N)C(=O)O; d3Pal = N[C@H](Cc1cccnc1)C(=O)O
What was measured:
[1] = Injection site reaction after subcutaneous and/or intramuscular injection; format: in vivo; details: 30-100 mg/ml, 0.4-1.6 ml
[2] = Plasma concentration of teverelix in patients versus weight; format: in vivo; details: different patients

injection site reaction [1]: mild injection site reaction
Structure (SMILES): CC(=O)N[C@H](Cc1ccc2ccccc2c1)C(=O)N[C@H](Cc1ccc(Cl)cc1)C(=O)N[C@H](Cc1cccnc1)C(=O)N[C@@H](CO)C(=O)N[C@@H](Cc1ccc(O)cc1)C(=O)N[C@H](CCCCNC(N)=O)C(=O)N[C@@H](CC(C)C)C(=O)N[C@@H](CCCCNC(C)C)C(=O)N1CCC[C@H]1C(=O)N[C@H](C)C(N)=O [teverelix, Ac-D-Nal-D-pClPhe-D-Pal-Ser-Tyr-D-Hci-Leu-Lys (iPr)-Pro-D-Ala-NH2] (Ac-[d2Nal][dPhe(4-Cl)][d3Pal]SY[d(hCit)]L[Lys(iPr)]P[dA]-NH2)
dependence of plasma concentration of teverelix on patients weight [2]: substantially independent of the patients weight

Reference: patent US12458680B2, “Reconstitutable teverelix-TFA composition” (Antev Limited, priority 2018, dated 2025)
